The target in experiment [1] is T1, 5-hydroxytryptamine receptor 1A (Rattus norvegicus, UniProt P19327).
T1 sequence (P19327 whole entry): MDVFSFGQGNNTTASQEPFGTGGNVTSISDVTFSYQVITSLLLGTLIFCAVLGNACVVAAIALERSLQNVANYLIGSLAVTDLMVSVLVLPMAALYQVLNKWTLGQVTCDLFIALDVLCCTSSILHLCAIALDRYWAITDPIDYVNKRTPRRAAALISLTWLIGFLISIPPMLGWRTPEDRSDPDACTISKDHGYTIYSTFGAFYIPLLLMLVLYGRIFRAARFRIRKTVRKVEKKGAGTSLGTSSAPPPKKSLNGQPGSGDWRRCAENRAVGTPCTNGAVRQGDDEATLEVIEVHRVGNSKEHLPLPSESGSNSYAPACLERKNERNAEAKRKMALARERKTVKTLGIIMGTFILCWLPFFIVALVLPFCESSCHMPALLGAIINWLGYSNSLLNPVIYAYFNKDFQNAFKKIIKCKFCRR
In words: (§1) Ability to inhibit 5-HT sensitive,forskolin-stimulated adenylyl cyclase(FSC) activity in rat hippocampal membranes mediated through 5-hydroxytryptamine 1A receptor. It counts as functional, cell membranes.

For experiment [2], the target named is D(1A) dopamine receptor (Rattus norvegicus, UniProt P18901). In words: Ability to displace [3H]SCH-23390 binding to rat striatal Dopamine receptor D1.
Chain of D(1A) dopamine receptor (P18901 whole entry): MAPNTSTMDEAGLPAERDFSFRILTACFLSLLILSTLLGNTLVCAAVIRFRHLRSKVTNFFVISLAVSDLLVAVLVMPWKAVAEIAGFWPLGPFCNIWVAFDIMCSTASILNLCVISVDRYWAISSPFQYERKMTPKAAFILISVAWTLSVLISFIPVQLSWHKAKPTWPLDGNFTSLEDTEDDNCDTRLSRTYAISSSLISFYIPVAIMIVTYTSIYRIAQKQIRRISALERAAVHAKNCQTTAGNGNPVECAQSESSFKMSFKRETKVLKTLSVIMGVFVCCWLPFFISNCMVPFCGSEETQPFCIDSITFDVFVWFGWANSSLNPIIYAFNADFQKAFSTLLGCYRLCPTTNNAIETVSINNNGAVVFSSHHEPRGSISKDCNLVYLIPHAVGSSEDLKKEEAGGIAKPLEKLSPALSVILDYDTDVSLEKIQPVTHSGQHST
Experiment [3] concerns the target T2, 5-hydroxytryptamine receptor 1A (Rattus norvegicus) (UniProt P19327).
T2 sequence (whole entry): T1 sequence (P19327 whole entry)
Described as §1. The class given is functional, cell membranes. The settings on record: concentration not given here.

Experiment [4] deals with D(2) dopamine receptor (Homo sapiens, UniProt P14416). In words: Ability to displace [3H]raclopride binding to cloned human Dopamine receptor D2A.
Chain of D(2) dopamine receptor (P14416 whole entry): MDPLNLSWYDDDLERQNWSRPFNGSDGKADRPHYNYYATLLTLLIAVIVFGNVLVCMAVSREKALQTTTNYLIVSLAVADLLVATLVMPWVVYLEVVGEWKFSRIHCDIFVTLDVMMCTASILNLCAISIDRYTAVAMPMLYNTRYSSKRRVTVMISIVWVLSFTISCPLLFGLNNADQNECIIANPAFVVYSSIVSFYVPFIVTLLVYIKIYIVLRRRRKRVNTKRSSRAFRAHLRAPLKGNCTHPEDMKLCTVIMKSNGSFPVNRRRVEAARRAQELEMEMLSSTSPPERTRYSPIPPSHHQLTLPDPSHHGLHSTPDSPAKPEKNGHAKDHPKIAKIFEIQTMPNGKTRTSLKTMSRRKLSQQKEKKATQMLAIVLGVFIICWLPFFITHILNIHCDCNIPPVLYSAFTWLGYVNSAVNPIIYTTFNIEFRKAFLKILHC
The target in experiment [5] is T1, 5-hydroxytryptamine receptor 1A. In words: Ability to displace [3H]8-OH-DPAT binding to rat hippocampal 5-hydroxytryptamine 1A receptor. It counts as tissue-based, Hippocampus.

As for `CN1CCc2cccc3c2[C@H]1Cc1cccc(O)c1-3`, it took 5200 nM to reach a half-maximal effect in experiment [1] (EC50). Besides, the figures for the Ki in experiment [2], in experiment [4] and in experiment [5] were 20.4 nM, 58.5 nM and 9.6 nM, respectively. The inhibition (commonly the relative decrease from the control value, in per cent) in experiment [3] came to 60%.
The corresponding values for `Cc1ccc2c(c1O)-c1cccc3c1[C@@H](C2)N(C)CC3` are 55 nM, 382 nM, 1070 nM, 0.45 nM and 102%.

Source of the values: ChEMBL document CHEMBL1128704, “(R)-11-hydroxy- and (R)-11-hydroxy-10-methylaporphine: synthesis, pharmacology, and modeling of D2A and 5-HT1A receptor interactions” (J Med Chem, 1995).
